Where two headings read alike, the source gives them in different places. Marks after values point to notes of the source that are not given here.
Key:
H9C2 cardiomyocytes = details: 6 h hypoxia, 12 h reoxygenation, CCK 450 nm
Procedure: H9C2 cardiomyocytes in the logarithmic growth phase were seeded into 96-well plates at a density of 7×10^4 cells/mL, with 100 μL per well.
After 24 hours of culture, the culture medium of the H/R and drug-treated groups was replaced with serum-free glucose-free DMEM medium (100 μL per well). The cells were then placed in an anaerobic incubator and cultured under hypoxic conditions in a 37° C. cell culture incubator. After 6 hours, the supernatant of the H/R and drug-treated groups was removed and replaced with high-glucose medium containing 10% fetal bovine serum (100 μL per well). Each drug-treated group received the corresponding concentration of the drug, while the H/R model group and the blank control group received an equal volume of DMSO.
After removing the supernatant, 100 μL of CCK solution (the volume of CCK accounted for 10% of the DMEM culture medium volume) was added to each well. The cells were cultured in the cell culture incubator for 1 hour, and the absorbance was measured at 450 nm using a microplate reader to calculate the cell viability. Cell viability was calculated as follows: Cell viability (%)=(Experimental well-Blank well)/(Control well-Blank well)×100%.

[1] = test system: mice with hypertensive heart disease induced by angiotensin II (AngII); format: in vivo; design: unit not given here
Procedure: After male C57BL/6 mice were acclimated to the environment, they were randomly divided into 10 groups, namely the blank control group, the AngII model group, the AngII+telmisartan 10 mg/kg positive control group, the AngII+spironolactone 20 mg/kg positive control group, the AngII+Formula I (0.1, 0.5, 2 mg/kg) groups, and the AngII+Formula II (0.1, 0.5, 2 mg/kg) groups. The mice in the drug administration groups were intragastrically administered the corresponding doses of Formula I and Formula II compounds once a day at the same time. The mice in the positive control groups were intragastrically administered the corresponding doses of telmisartan and spironolactone once a day. The mice in the blank control group and the model group were given the same amount of solvent (0.5% CMC-Na solution). The administration volume was 10 mL/kg, and the administration was continuous for 14 days. From the 1st to the 13th day of drug administration, AngII modeling was carried out. The mice in the blank control group were subcutaneously injected with normal saline, and the mice in the other groups were subcutaneously injected with 1.44 mg/kg of AngII (modeling was carried out 2 h after drug administration), for a total of 13 times. […] Three mice were randomly selected from each group. The mice were placed in a fixator to expose the tail. The fixator was placed on a heating pad to maintain the normal body temperature of the mice. The root of the tail was passed through a pressurized tail cuff and fixed. Inflation and pressurization were started, and a measuring instrument was used to measure the systolic blood pressure (SBP). The blood pressure index of each animal was continuously measured 5 times, and the average value was taken.

[2] = test system: mice with hypertensive heart disease induced by angiotensin II (AngII); test: AngII-induced hypertensive heart disease mouse model: serum cAMP (ELISA); format: in vivo
Procedure: After male C57BL/6 mice were acclimated to the environment, they were randomly divided into 10 groups, namely the blank control group, the AngII model group, the AngII+telmisartan 10 mg/kg positive control group, the AngII+spironolactone 20 mg/kg positive control group, the AngII+Formula I (0.1, 0.5, 2 mg/kg) groups, and the AngII+Formula II (0.1, 0.5, 2 mg/kg) groups. The mice in the drug administration groups were intragastrically administered the corresponding doses of Formula I and Formula II compounds once a day at the same time. The mice in the positive control groups were intragastrically administered the corresponding doses of telmisartan and spironolactone once a day. The mice in the blank control group and the model group were given the same amount of solvent (0.5% CMC-Na solution). The administration volume was 10 mL/kg, and the administration was continuous for 14 days. From the 1st to the 13th day of drug administration, AngII modeling was carried out. The mice in the blank control group were subcutaneously injected with normal saline, and the mice in the other groups were subcutaneously injected with 1.44 mg/kg of AngII (modeling was carried out 2 h after drug administration), for a total of 13 times. Detection of serum CAMP level: After the experiment, the animals were sacrificed by enucleation to obtain blood. The blood was left to stand at room temperature for 2 hours, and then centrifuged at 3500 rpm for 20 minutes to separate the serum. The content of serum cAMP was determined according to the instructions of the ELISA kit.

[3] = test system: mice with hypertensive heart disease induced by angiotensin II (AngII); test: AngII-induced hypertensive heart disease mouse model: echocardiogram; format: in vivo; details: left ventricle, day 14
Procedure: After male C57BL/6 mice were acclimated to the environment, they were randomly divided into 10 groups, namely the blank control group, the AngII model group, the AngII+telmisartan 10 mg/kg positive control group, the AngII+spironolactone 20 mg/kg positive control group, the AngII+Formula I (0.1, 0.5, 2 mg/kg) groups, and the AngII+Formula II (0.1, 0.5, 2 mg/kg) groups. The mice in the drug administration groups were intragastrically administered the corresponding doses of Formula I and Formula II compounds once a day at the same time. The mice in the positive control groups were intragastrically administered the corresponding doses of telmisartan and spironolactone once a day. The mice in the blank control group and the model group were given the same amount of solvent (0.5% CMC-Na solution). The administration volume was 10 mL/kg, and the administration was continuous for 14 days.
From the 1st to the 13th day of drug administration, AngII modeling was carried out. The mice in the blank control group were subcutaneously injected with normal saline, and the mice in the other groups were subcutaneously injected with 1.44 mg/kg of AngII (modeling was carried out 2 h after drug administration), for a total of 13 times.
Echocardiogram detection: On the 14th day of drug administration (after 13 times of AngII modeling), 5 animals were randomly selected from each group. After anesthesia and fixation, the chest hair was shaved, and a small amount of coupling agent was applied to the chest. The Vevo 770 Imaging System, a small animal ultrasonic real-time imaging system, was used for echocardiogram examination. All echocardiogram indexes of the animals were continuously measured for 3 cardiac cycles, and the average value was taken.

[4] = 0 d (before administration), 0.1 mg/kg group
[5] = 0 d (before administration), 0.5 mg/kg group
[6] = 0 d (before administration), 2 mg/kg group
[7] = 7 d, 0.1 mg/kg intragastric once a day, AngII 1.44 mg/kg s.c.
[8] = 7 d, 0.5 mg/kg intragastric once a day, AngII 1.44 mg/kg s.c.
[9] = 7 d, 2 mg/kg intragastric once a day, AngII 1.44 mg/kg s.c.
[10] = 14 d, 0.1 mg/kg intragastric once a day, AngII 1.44 mg/kg s.c.
[11] = 14 d, 0.5 mg/kg intragastric once a day, AngII 1.44 mg/kg s.c.
[12] = 14 d, 2 mg/kg intragastric once a day, AngII 1.44 mg/kg s.c.
[13] = 0.1 mg/kg intragastric once a day 14 days
[14] = 0.5 mg/kg intragastric once a day 14 days
[15] = 2 mg/kg intragastric once a day 14 days
[16] = 0.1 mg/kg intragastric once a day
[17] = 0.5 mg/kg intragastric once a day
[18] = 2 mg/kg intragastric once a day
[19] = 20 mg/kg intragastric once a day
[20] = 10 mg/kg intragastric once a day

Row | Structure (SMILES) | OD (H9C2 cardiomyocytes; 0.1 μM) | OD (H9C2 cardiomyocytes; 0.3 μM) | OD (H9C2 cardiomyocytes; 1 μM) | OD (H9C2 cardiomyocytes; 3 μM) | OD (H9C2 cardiomyocytes; 5 μM) | OD (H9C2 cardiomyocytes; 10 μM) | SBP [1, 4] | SBP [1, 5] | SBP [1, 6] | SBP [1, 7] | SBP [1, 8] | SBP [1, 9] | SBP [1, 10] | SBP [1, 11] | SBP [1, 12] | cAMP [2, 13] [nmol/L] | cAMP [2, 14] [nmol/L] | cAMP [2, 15] | Post-diastolic posterio rwall thickness [3, 16] [mm] | Posterior wall thickness in systole [3, 16] [mm] | also measured
1 | O=c1c(Cc2ccc3c(c2)OCO3)coc2cc(O)cc(O)c12 [Formula I] | 0.630 ± 0082 | 0.628 ± 0.061 | 0.576 ± 0.063 | 0.620 ± 0.069 | 0.566 ± 0.074^(p = 0.07) | 0.575 ± 0.091 | 102.13 ± 4.30 | 109.70 ± 5.67 | 104.93 ± 9.21 | 121.33 ± 3.19 | 109.80 ± 4.50 | 107.73 ± 6.53 | 107.60 ± 9.81 | 105.13 ± 7.10 | 109.20 ± 5.19 | 27.73 ± 3.03 | 27.42 ± 1.12 | 29.04 ± 5.17 ^ nmol/L | 0.79 ± 0.09 | 0.90 ± 0.06 | Post-diastolic posterio rwall thickness [3, 17]: 0.64 ± 0.02 mm; Posterior wall thickness in systole [3, 17]: 0.87 ± 0.11 mm; Post-diastolic posterio rwall thickness [3, 18]: 0.67 ± 0.08 mm; Posterior wall thickness in systole [3, 18]: 0.90 ± 0.16 mm
2 | CC(=O)S[C@@H]1CC2=CC(=O)CC[C@]2(C)[C@H]2CC[C@@]3(C)[C@@H](CC[C@@]34CCC(=O)O4)[C@H]12 [Spironolactone, reference compound] | – | – | – | – | – | – | – | – | – | – | – | – | – | – | – | – | – | – | – | – | SBP ([1]; 0 d (before administration), 20 mg/kg group): 106.13 ± 0.81; SBP ([1]; 7 d, 20 mg/kg intragastric once a day, AngII 1.44 mg/kg s.c.): 109.73 ± 6.81; SBP ([1]; 14 d, 20 mg/kg intragastric once a day, AngII 1.44 mg/kg s.c.): 109.70 ± 4.20; cAMP ([2]; 20 mg/kg intragastric once a day 14 days): 29.34 ± 3.04 ^ nmol/L; Post-diastolic posterio rwall thickness [3, 19]: 0.81 ± 0.07 mm; Posterior wall thickness in systole [3, 19]: 1.01 ± 0.08 mm
3 | CCCc1nc2c(C)cc(-c3nc4ccccc4n3C)cc2n1Cc1ccc(-c2ccccc2C(=O)O)cc1 [Telmisartan, reference compound] | – | – | – | – | – | – | – | – | – | – | – | – | – | – | – | – | – | – | – | – | SBP ([1]; 0 d (before administration), 10 mg/kg group): 104.13 ± 3.56; SBP ([1]; 7 d, 10 mg/kg intragastric once a day, AngII 1.44 mg/kg s.c.): 91.20 ± 6.35^###&; SBP ([1]; 14 d, 10 mg/kg intragastric once a day, AngII 1.44 mg/kg s.c.): 100.47 ± 7.68; cAMP ([2]; 10 mg/kg intragastric once a day 14 days): 25.18 ± 1.10 nmol/L; Post-diastolic posterio rwall thickness [3, 20]: 0.65 ± 0.07 mm; Posterior wall thickness in systole [3, 20]: 0.79 ± 0.16 mm
4 | Cc1c(O)cc(O)c2c(=O)c(Cc3ccc4c(c3)OCO4)coc12 [Formula II, 3-(benzo[d][1,3]dioxol-5-ylmethyl)-5,7-dihydroxy-8-methyl-4H-chromen-4-one] | 0.630 ± 0.070 | 0.612 ± 0.059 | 0.542 ± 0.075 | 0.640 ± 0.070 | 0.466 ± 0.023 | 0.498 ± 0.071 | 100.30 ± 7.37 | 102.43 ± 8.41 | 101.27 ± 12.13 | 105.73 ± 6.00 | 106.07 ± 1.22 | 110.93 ± 5.78 | 110.13 ± 3.51 | 113.93 ± 3.51 | 108.27 ± 7.29 | 24.81 ± 1.63 | 26.38 ± 1.81 | 24.42 ± 2.07 nmol/L | 0.72 ± 0.08 | 0.91 ± 0.10 | Post-diastolic posterio rwall thickness [3, 17]: 0.69 ± 0.06 mm; Posterior wall thickness in systole [3, 17]: 0.87 ± 0.04 mm; Post-diastolic posterio rwall thickness [3, 18]: 0.72 ± 0.06 mm; Posterior wall thickness in systole [3, 18]: 0.82 ± 0.11 mm
